Data from patent publication US20260199427A1 (priority 2021, published 2026).
Values joined by “and” are separate entries in the source; they are usually repeats but may differ in a detail not shown here. Equal values may be shown once.

Key:
[1] = test system: B. anthracis Ames NR-3838 spores; parameters: species or system New Zealand White (NZW) rabbits; settings: rabbit, in vivo
[2] = test system: B. anthracis Ames NR-3838 spores; parameters: species or system New Zealand White (NZW) rabbits; settings: rabbit, in vivo; remark: listed apart in the source
[3] = test system: B. anthracis Ames spores (NR3838); parameters: species or system New Zealand White (NZW) rabbits; settings: rabbit, in vivo
[4] = test system: B. anthracis Ames spores (NR3838); parameters: species or system New Zealand White (NZW) rabbits; settings: rabbit, in vivo; remark: listed apart in the source
[5] = test system: B. anthracis Ames NR-3838 spores; settings: rabbit, in vivo
[6] = test system: B. anthracis; assay: microbe, parasite or virus in culture; format: cell-based; settings: Bacillus anthracis
[7] = test system: B. anthracis Ames NR-3838 spores; parameters: species or system New Zealand White (NZW) rabbits; settings: rabbit, in vivo; remark: listed apart in the source
[8] = test system: B. anthracis Ames NR-3838 spores; parameters: species or system New Zealand White (NZW) rabbits; settings: rabbit, in vivo; remark: listed apart in the source
[9] = test system: B. anthracis Ames spores (NR3838); parameters: species or system New Zealand White (NZW) rabbits; settings: rabbit, in vivo; remark: listed apart in the source
[10] = test system: B. anthracis Ames spores (NR3838); parameters: species or system New Zealand White (NZW) rabbits; settings: rabbit, in vivo; remark: listed apart in the source

Row | SMILES | survival [1] | Average Bacterial Load (cfu/g), lung [2] | overall survival rate [3] | survival [3] | B. anthracis bacterial load in lymph node tissue [4] | B. anthracis bacterial load in spleen tissue [4] | peak of febrile response (core body temperature) [5] | MIC [6] | animals positive for bacteremia [7] | average level of bacteremia, comparing only the two antibiotic-treated groups [7] | average bacterial load in the lung tissue, comparing only the two antibiotic-treated groups [2] | anthrax induced lesions (histopathology) [8] | bacteremia [9] | anthrax-related lesions (histopathology) [10] | maximum percent weight loss [5]
1 | C[C@H]1COc2c(N3CCN(C)CC3)c(F)cc3c(=O)c(C(=O)O)cn1c23 [Levofloxacin] | 100% | 6.93E+03 cfu/g | 50% | 100% and 50% | 0 cfu/g | 0 cfu/g | ~41 °C |  |  |  |  |  |  |  | 
2 | CCCCCCCCCCNCCNC1(C)CC(OC2C(Oc3c4cc5cc3Oc3ccc(cc3Cl)[C@@H](O)[C@@H](NC(=O)[C@@H](CC(C)C)NC)C(=O)N[C@@H](CC(N)=O)C(=O)N[C@H]5C(=O)N[C@H]3C(=O)N[C@H](C(=O)N[C@H](C(=O)O)c5cc(O)c(CNCP(=O)(O)O)c(O)c5-c5cc3ccc5O)[C@H](O)c3ccc(c(Cl)c3)O4)OC(CO)C(O)C2O)OC(C)C1O (some centres unmarked) [Vibativ, N^3″-[2-(decylamino)ethyl]-29-[[(phosphonomethyl)amino]methyl]vancomycin] | 100% | 1.93E+03 cfu/g | 67% | 100% and 60% |  |  | ~41 °C | < 0.0625 µg/mL | 2 out of 12 | significantly (p<0.05) lower | significantly (p<0.05) lower | mitigation of anthrax induced lesions | never developed bacteremia at a detectable level | generally mitigated | significantly (p<0.05) higher
